The target of the assay is human S1P3 receptor (Homo sapiens (Human), UniProt Q99500). The assay is described as follows: Activation or block of activation of human S1P3 receptor, Ca+2 FLIPR assay. Conditions: for IC50: read-out: S1P3 IC50. The assay is classed as cell-based. A digest of the protocol:
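T24 cells stably expressing human S1P3, grown in charcoal-treated FBS, dye-loaded and read on FLIPR for calcium after ligand addition in HBSS/20 mM HEPES (1 s readings for 75 s, then every 10 s for 2.5 min). Agonist or antagonist mode; S1P positive control in 4 mg/ml fatty-acid-free BSA. IC50 by Levenberg–Marquardt regression.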

Where [1] appears, read: T24 cells stably expressing the human S1P3 receptor, FLIPR Ca+2 response, 0.61 nM to 10,000 nM.
Where [2] appears, read: T24 cells stably expressing the human S1P3 receptor, value in brackets.

Read-outs that look alike come from different tables or passages of the source.

The term IC50 denotes the concentration needed to halve the response being measured.

Sequence of human S1P3 receptor (Q99500 whole entry): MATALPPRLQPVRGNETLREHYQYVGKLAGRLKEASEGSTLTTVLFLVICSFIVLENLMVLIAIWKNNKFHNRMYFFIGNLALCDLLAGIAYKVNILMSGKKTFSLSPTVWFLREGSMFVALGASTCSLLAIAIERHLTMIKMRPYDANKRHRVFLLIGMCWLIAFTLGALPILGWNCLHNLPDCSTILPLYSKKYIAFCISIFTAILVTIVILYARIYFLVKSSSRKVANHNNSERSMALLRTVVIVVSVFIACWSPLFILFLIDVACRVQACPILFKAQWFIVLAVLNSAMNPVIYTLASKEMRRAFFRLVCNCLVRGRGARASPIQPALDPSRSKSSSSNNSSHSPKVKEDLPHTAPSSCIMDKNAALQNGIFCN

As to `CCOC(=O)c1ccc2c(C(=O)NCc3ccc(F)c(F)c3)c(C(C)C)n(Cc3ncco3)c2c1` [Compound 47, Ethyl 3-(3,4-Difluorobenzylcarbamoyl)-2-isopropyl-1-(oxazol-2-ylmethyl)-1H-indole-6-carboxylate], the half-maximal inhibitory concentration (IC50) under setting [1] came to 350 nM. Also, under setting [2], the “S1P3 (% inh)” value is given as 100%.

For `CCOC(=O)c1ccc2c(C(=O)NCc3cc(F)cc(F)c3)c(C(C)C)n(Cc3ccccn3)c2c1` [Compound 48, Ethyl 3-(3,5-Difluorobenzylcarbamoyl)-2-isopropyl-1-(pyridin-2-ylmethyl)-1H-indole-6-carboxylate], the IC50 under setting [1] stood at 24 nM. In addition, the “S1P3 (% inh)” value under setting [2] was found to be 100%.

As for `CCOC(=O)c1ccc2c(C(=O)NCc3cncc(F)c3)c(C(C)C)n(Cc3ccccn3)c2c1` [Compound 49, Ethyl 3-((5-Fluoropyridin-3-yl)methylcarbamoyl)-2-isopropyl-1-(pyridin-2-ylmethyl)-1H-indole-6-carboxylate], the IC50 under setting [1] worked out at 870 nM. The “S1P3 (% inh)” value under setting [2] came to 100%.

As for `CCOC(=O)c1ccc2c(C(=O)NCc3ccc(F)cc3)c(C(C)C)n(Cc3ccccn3)c2c1` [Compound 50, Ethyl 3-(4-Fluorobenzylcarbamoyl)-2-isopropyl-1-(pyridin-2-ylmethyl)-1H-indole-6-carboxylate], under setting [1], the IC50 is 69 nM. Moreover, under setting [2], the “S1P3 (% inh)” value is given as 100%.

As to `CC(C)c1c(C(=O)NCc2ccc(F)c(F)c2)c2ccc(CO)cc2n1Cc1ccccc1` [Compound 52, 1-Benzyl-N-(3,4-difluorobenzyl)-6-(hydroxymethyl)-2-isopropyl-1H-indole-3-carboxamide], the IC50 under setting [1] was 2000 nM. The “S1P3 (% inh)” value under setting [2] is on record as 85%.

With `CC(C)c1c(C(=O)NCc2ccc(F)c(F)c2)c2ccc(/C=N/O)cc2n1Cc1ccccc1` [Compound 55, (E)-1-Benzyl-N-(3,4-difluorobenzyl)-6-((hydroxyimino)methyl)-2-isopropyl-1H-indole-3-carboxamide], under setting [1], the IC50 was 234 nM. Moreover, under setting [2], the “S1P3 (% inh)” value was found to be 100%.

Turning to `C#CCNC(=O)c1ccc2c(C(=O)NCc3ccc(F)c(F)c3)c(C(C)C)n(Cc3ccccc3)c2c1` [Compound 69, 1-Benzyl-N3-(3,4-difluorobenzyl)-2-isopropyl-N6-(prop-2-ynyl)-1H-indole-3,6-dicarboxamide], the IC50 under setting [1] worked out at 5000 nM. The “S1P3 (% inh)” value under setting [2] came to 98%.

In the case of `CC(C)c1c(C(=O)NCc2ccc(F)c(F)c2)c2ccc(C3=NCCO3)cc2n1Cc1ccccc1` [Compound 70, 1-Benzyl-N-(3,4-difluorobenzyl)-6-(4,5-dihydrooxazol-2-yl)-2-isopropyl-1H-indole-3-carboxamide], the “S1P3 (% inh)” value is reported as 36 nM (100) % and the IC50 turned out to be 36 nM.

As for `CC(C)c1c(C(=O)NCc2ccc(F)c(F)c2)c2ccc(C3=NC(C)(C)CO3)cc2n1Cc1ccccc1` [Compound 71, 1-Benzyl-N-(3,4-difluorobenzyl)-6-(4,4-dimethyl-4,5-dihydrooxazol-2-yl)-2-isopropyl-1H-indole-3-carboxamide], the IC50 under setting [1] is 47 nM. Moreover, the “S1P3 (% inh)” value under setting [2] stood at 97%.

For `CC(C)c1c(C(=O)NCc2cncc(F)c2)c2ccc(C3=N[C@@H](C)CO3)cc2n1Cc1ccccc1` [Compound 72, (S)-1-Benzyl-N-((5-fluoropyridin-3-yl)methyl)-2-isopropyl-6-(4-methyl-4,5-dihydrooxazol-2-yl)-1H-indole-3-carboxamide], the “S1P3 (% inh)” value was 43 nM (99) % and the IC50 came out at 43 nM.

Regarding `CC[C@H]1COC(c2ccc3c(C(=O)NCc4cncc(F)c4)c(C(C)C)n(Cc4ccccc4)c3c2)=N1` [Compound 73, (S)-1-Benzyl-6-(4-ethyl-4,5-dihydrooxazol-2-yl)-N-((5-fluoropyridin-3-yl)methyl)-2-isopropyl-1H-indole-3-carboxamide], the IC50 under setting [1] was found to be 35 nM. The “S1P3 (% inh)” value under setting [2] came to 100%.

Take `CC(C)c1c(C(=O)NCc2ccc(F)c(F)c2)c2ccc(C3=N[C@H](C)CO3)cc2n1Cc1ccccc1` [Compound 74, (R)-1-Benzyl-N-(3,4-difluorobenzyl)-2-isopropyl-6-(4-methyl-4,5-dihydrooxazol-2-yl)-1H-indole-3-carboxamide]: the IC50 under setting [1] turned out to be 49 nM. The “S1P3 (% inh)” value under setting [2] worked out at 99%.

On to `CC[C@H]1COC(c2ccc3c(C(=O)NCc4ccc(F)c(F)c4)c(C(C)C)n(Cc4ccccc4)c3c2)=N1` [Compound 75, (S)-1-Benzyl-N-(3,4-difluorobenzyl)-6-(4-ethyl-4,5-dihydrooxazol-2-yl)-2-isopropyl-1H-indole-3-carboxamide], for which the half-maximal inhibitory concentration (IC50) under setting [1] is 17 nM. Also, the “S1P3 (% inh)” value under setting [2] is 97%.

In the case of `CC(C)c1c(C(=O)NCc2ccc(F)c(F)c2)c2ccc(C3=N[C@@H](C)CO3)cc2n1Cc1ccccc1` [Compound 76, (S)-1-Benzyl-N-(3,4-difluorobenzyl)-2-isopropyl-6-(4-methyl-4,5-dihydrooxazol-2-yl)-1H-indole-3-carboxamide], the IC50 under setting [1] is 33 nM. The “S1P3 (% inh)” value under setting [2] is reported as 99%.

`COC[C@H]1COC(c2ccc3c(C(=O)NCc4ccc(F)c(F)c4)c(C(C)C)n(Cc4ccccc4)c3c2)=N1` [Compound 77, (S)-1-Benzyl-N-(3,4-difluorobenzyl)-2-isopropyl-6-(4-(methoxymethyl)-4,5-dihydrooxazol-2-yl)-1H-indole-3-carboxamide]: the IC50 under setting [1] stood at 46 nM. Moreover, the “S1P3 (% inh)” value under setting [2] stood at 96%.

As to `CC[C@H]1COC(c2ccc3c(C(=O)NCc4ccc(F)c(F)c4)c(C(C)C)n(Cc4ccccn4)c3c2)=N1` [Compound 80, (S)—N-(3,4-Difluorobenzyl)-6-(4-ethyl-4,5-dihydrooxazol-2-yl)-2-isopropyl-1-(pyridin-2-ylmethyl)-1H-indole-3-carboxamide], the IC50 under setting [1] was 7 nM. The “S1P3 (% inh)” value under setting [2] came to 99%.

`CC(C)c1c(C(=O)NCc2ccc(F)c(F)c2)c2ccc(C3=N[C@@H](C)CO3)cc2n1Cc1cccnc1` [Compound 82, (S)—N-(3,4-Difluorobenzyl)-2-isopropyl-6-(4-methyl-4,5-dihydrooxazol-2-yl)-1-(pyridin-3-ylmethyl)-1H-indole-3-carboxamide]: under setting [1], the IC50 was determined as 44 nM. For the same molecule, under setting [2], the “S1P3 (% inh)” value was 100%.

On to `CC[C@H]1COC(c2ccc3c(C(=O)NCc4ccc(F)c(F)c4)c(C(C)C)n(Cc4ncco4)c3c2)=N1` [Compound 83, (S)—N-(3,4-Difluorobenzyl)-6-(4-ethyl-4,5-dihydrooxazol-2-yl)-2-isopropyl-1-(oxazol-2-ylmethyl)-1H-indole-3-carboxamide], for which the IC50 under setting [1] turned out to be 280 nM. In addition, the “S1P3 (% inh)” value under setting [2] was 99%.

In the case of `CC(C)c1c(C(=O)NCc2cc(F)cc(F)c2)c2ccc(C3=N[C@@H](C)CO3)cc2n1Cc1ccccn1` [Compound 84, (S)—N-(3,5-Difluorobenzyl)-2-isopropyl-6-(4-methyl-4,5-dihydrooxazol-2-yl)-1-(pyridin-2-ylmethyl)-1H-indole-3-carboxamide], the half-maximal inhibitory concentration (IC50) under setting [1] was 40 nM. Besides, the “S1P3 (% inh)” value under setting [2] turned out to be 89%.

As to `CC[C@H]1COC(c2ccc3c(C(=O)NCc4cc(F)cc(F)c4)c(C(C)C)n(Cc4ccccn4)c3c2)=N1` [Compound 85, (S)—N-(3,5-Difluorobenzyl)-6-(4-ethyl-4,5-dihydrooxazol-2-yl)-2-isopropyl-1-(pyridin-2-ylmethyl)-1H-indole-3-carboxamide], under setting [1], the IC50 was 18 nM. The “S1P3 (% inh)” value under setting [2] is recorded as 100%.

Turning to `CC(C)c1c(C(=O)NCc2ccc(F)cc2)c2ccc(C3=N[C@@H](C)CO3)cc2n1Cc1ccccn1` [Compound 86, (S)—N-(4-Fluorobenzyl)-2-isopropyl-6-(4-methyl-4,5-dihydrooxazol-2-yl)-1-(pyridin-2-ylmethyl)-1H-indole-3-carboxamide], the IC50 under setting [1] was 48 nM. In addition, the “S1P3 (% inh)” value under setting [2] worked out at 100%.

For `CC(C)c1c(C(=O)NCc2ccc(F)c(F)c2)c2ccc(-c3nnco3)cc2n1Cc1ccccc1` [Compound 89, 1-Benzyl-N-(3,4-difluorobenzyl)-2-isopropyl-6-(1,3,4-oxadiazol-2-yl)-1H-indole-3-carboxamide], the IC50 under setting [1] came out at 59 nM. Moreover, the “S1P3 (% inh)” value under setting [2] was 98%.

In the case of `CC(C)Oc1ccc2c(C(=O)NCc3ccc(F)c(F)c3)c(CN(C)C)n(Cc3ccccn3)c2c1` [Compound 98, N-(3,4-Difluorobenzyl)-2-((dimethylamino)methyl)-6-isopropoxy-1-(pyridin-2-ylmethyl)-1H-indole-3-carboxamide], the IC50 under setting [1] is 632 nM. In addition, under setting [2], the “S1P3 (% inh)” value is recorded as 100%.

In the case of `CC(C)Oc1ccc2c(C(=O)NCc3ccc(F)c(F)c3)c(C3=NCCO3)n(Cc3ccccn3)c2c1` [Compound 104, N-(3,4-Difluorobenzyl)-2-(4,5-dihydrooxazol-2-yl)-6-isopropoxy-1-(pyridin-2-ylmethyl)-1H-indole-3-carboxamide], the IC50 under setting [1] stood at 3900 nM. For the same molecule, the “S1P3 (% inh)” value under setting [2] was determined as 50%.

For `CC(C)Oc1ccc2c(C(=O)NCc3ccc(F)c(F)c3)c(C=O)n(Cc3ccccn3)c2c1` [Compound 105, N-(3,4-Difluorobenzyl)-2-formyl-6-isopropoxy-1-(pyridin-2-ylmethyl)-1H-indole-3-carboxamide], under setting [1], the 50% inhibitory concentration (IC50) turned out to be 485 nM. Besides, the “S1P3 (% inh)” value under setting [2] was determined as 98%.

In the case of `CC(C)Oc1ccc2c(C(=O)NCc3ccc(F)c(F)c3)c(CO)n(Cc3ccccn3)c2c1` [Compound 106, N-(3,4-Difluorobenzyl)-2-(hydroxymethyl)-6-isopropoxy-1-(pyridin-2-ylmethyl)-1H-indole-3-carboxamide], the IC50 under setting [1] was 689 nM. In addition, under setting [2], the “S1P3 (% inh)” value is recorded as 96%.

As for `CC(C)Oc1ccc2c(C(=O)NCc3ccc(F)c(F)c3)c(C(C)O)n(Cc3ccccn3)c2c1` (stereo not drawn) [Compound 108, N-(3,4-Difluorobenzyl)-2-(1-hydroxyethyl)-6-isopropoxy-1-(pyridin-2-ylmethyl)-1H-indole-3-carboxamide], the IC50 under setting [1] is 15 nM. In addition, the “S1P3 (% inh)” value under setting [2] is reported as 98%.
